From PubChem BioAssay (NCI)
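Results reflect a 48-hour exposure of cells in 96-well plates to compound at five concentrations. GI50 = concentration required for 50% inhibition of growth. Definition used: TGI = concentration required for complete inhibition of growth.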 *1 amine or outer side, *2 acyl side, *3 side chain or, on linkers, in order; H or OH if unused. Where a SMILES comes first, the peptide text is derived from it. [ ]: non-standard residue; d: D form. The star is where a group is joined. X12 = NCCCCC(N[*:1])C(=O)CN1CCCC1C(=O)[*:2]; Pentadecanoyl = CCCCCCCCCCCCCCC(=O)*

Key:
Test in all cases: inhibition of tumour cell growth, NCI panel, 48 h
[1] = system: COLO 205 colon
[2] = system: HOP-92 NSCLC
[3] = system: MALME-3M melanoma
[4] = system: NCI-H23 lung
[5] = system: SF-295 CNS
[6] = system: T-47D breast
[7] = system: TK-10 renal
[8] = system: RXF 393 renal

SMILES | TGI [1] [µM] | TGI [2] [µM] | TGI [3] [µM] | TGI [4] [µM] | TGI [5] [µM] | TGI [6] [µM] | TGI [7] [µM] | GI50 [1] [µM] | GI50 [2] [µM] | GI50 [4] [µM] | GI50 [5] [µM] | GI50 [6] [µM] | GI50 [7] [µM] | TGI [8] [µM] | GI50 [3] [µM] | GI50 [8] [µM]
CN1CCN(C2CC(=O)c3c(Cl)sc(Cl)c32)CC1 (stereo unspecified) | > 53.4 | > 27 | > 50.3 | 30.3 | > 31.6 | > 45.9 | > 61 |  |  |  |  |  |  |  |  | 
CC(C)(C)C1=CC(O)(c2c3ccccc3c(C3(O)C=C(C(C)(C)C)C(=O)C(C(C)(C)C)=C3)c3ccccc23)C=C(C(C)(C)C)C1=O | > 100 | 0.028 | > 100 | > 100 | > 100 | > 100 | > 100 |  |  |  |  |  |  |  |  | 
COc1ccc(Nc2ccnc3cc(Cl)ccc23)cc1CN(CCCl)CCCl | 3.56 | 5.53 |  | 3.26 | 3.31 | > 100 | > 20.7 | 1.39 | 1.17 | 1.04 | 0.804 | 2.27 | 2.02 |  |  | 
CCOC(=O)/C=C/C(Br)=C(Br)/C=C/C(=O)OCC | 30.8 | 37.1 | 17.5 | 30 | 28.8 | > 64.5 | 28.1 |  |  |  |  |  |  | 24.9 |  | 
CC1CC2OC(=N)C1(C#N)C2(C#N)C#N (stereo unspecified) | 24.8 | 36 | 48.9 | 63.7 | > 100 | 97.4 | 71.6 |  |  |  |  |  |  | 31.1 |  | 
[O-][n+]1cc(SCc2ccccc2)ncc1SCc1ccccc1 | > 10 | > 10 | > 10 | > 10 | > 10 | > 10 | > 10 |  |  |  |  |  |  | > 10 |  | 
CCCCCCCCCCCCCCC(=O)NC(CCCCN)C(=O)CN1CCCC1C(=O)NCC(=O)NC(Cc1ccccc1)C(=O)N1CCCC1C(=O)NC(CO)C(=O)NC(Cc1ccc(O)cc1)C(=O)NC(CCCCN)C(=O)NC(CC(C)C)C(=O)NC(CCCN=C(N)N)C(=O)N1CCCC1C(=O)NCC(N)=O (stereo unspecified) (Pentadecanoyl-[X12]GFPSYKLRPG-NH2; configuration not given here) | 33.8 | 37.4 | 32.2 | 49.6 | 57.3 | 40.7 | 32.9 | 15.6 | 15.9 | 21.7 | 26.2 | 17.2 | 11.7 | 60.4 | 8.11 | 26.1
CC(=O)OCC12C(OC(C)=O)C[C@@H](C)C3(CC(c4ccoc4)OC3=O)C1CCC(OC(C)=O)C21CO1 (stereo partly specified) | > 100 | > 100 | > 100 | > 100 | > 100 | > 100 | > 100 |  |  |  |  |  |  | > 100 |  | 
C/C(=N\Nc1nc2ccccc2n1C)c1ccncn1 | > 100 | 2.64 | > 100 | > 100 | > 100 | > 100 | > 100 |  |  |  |  |  |  |  |  | 
COC1OC(=O)C(OC)C(OC)C1OC (stereo unspecified) | > 100 | > 100 |  |  | > 100 | > 100 | > 100 |  |  |  |  |  |  |  |  | 
O=C(CSCC(=O)N/N=C\c1cccc(Br)c1)N/N=C\c1cccc(Br)c1 | > 100 | 47 |  | 30.1 | 29.9 | 54.6 | 24.8 |  |  |  |  |  |  | 67.9 |  | 
COC1OC2COC(c3ccccc3)OC2C(OC(=S)c2ccccc2)C1O (stereo unspecified) | > 100 | > 100 | > 100 | > 100 | > 100 | 59.5 | > 100 |  |  |  |  |  |  | 36.9 |  | 
COc1ccc(Cn2nc(OCc3ccccc3)c3cc([N+](=O)[O-])ccc32)cc1 |  |  | > 100 | > 100 | > 100 | > 100 | > 100 |  |  |  |  |  |  | > 100 |  | 
Nc1nn2cc(-c3ccccc3)[n+](CC(=O)c3ccccc3)c2s1 | 29.3 | 35.4 | 27.3 | 51.6 | > 100 | 55 | > 100 |  |  |  |  |  |  | 62.4 |  | 
Cc1cccc(-c2cc(=O)c3cc(C)cnc3[nH]2)c1 | 0.382 | > 100 | > 100 | > 35.9 | 0.609 | > 100 | > 100 |  |  |  |  |  |  | > 100 |  | 
COc1cc(OC)cc(-c2nc3ccccc3c(=O)[nH]2)c1 | > 100 | > 100 | > 100 | > 100 | > 100 | > 100 | > 100 |  |  |  |  |  |  | > 100 |  | 
COc1ccc2c(-c3csc(-c4c[nH]c5ccccc45)n3)c[nH]c2c1 | > 57.7 | 26.4 | 32.1 | > 66.5 | 35.2 | > 100 | 23.5 |  |  |  |  |  |  | 17.9 |  | 
CCOC(=O)N1c2c(c3ccccc3n2C(=O)OCC)C(=O)C(OC)N1C(=O)OCC (stereo unspecified) | 28.9 | > 100 | 69.8 | > 100 | 59.4 |  | > 100 |  |  |  |  |  |  |  |  | 
O=S1(=O)OCCOS(=O)(=O)C1S(=O)(=O)c1cccc2ccccc12 | > 100 | > 100 | > 100 | > 100 | > 100 |  |  |  |  |  |  |  |  |  |  | 
CCOC(=O)c1sc2[n+](c1C)C(=O)/C(=C/c1ccccc1Cl)S2 | 9.85 |  | 31.5 | 27.7 | 4.75 | 55.1 | 57 |  |  |  |  |  |  | > 68.1 |  | 
O=C(OCC(OC(=O)c1ccccc1)C1CC(C(O)C2CCCCC2)C(=O)O1)c1ccccc1 (stereo unspecified) | > 100 | > 100 |  | > 100 | > 100 | > 100 | > 100 |  |  |  |  |  |  | > 100 |  | 
Cc1nc2cccc(F)c2c(=O)n1-c1nnc(C2CC2)s1 | > 10 | > 10 |  | > 10 | > 10 | > 10 | > 10 |  |  |  |  |  |  | > 10 |  | 
O=C(c1cccs1)N(C(=O)N1CCCCC1)c1ccccc1 | > 100 |  | > 100 | > 100 | > 100 | > 100 | > 100 |  |  |  |  |  |  | > 100 |  | 
Cn1c(-c2cccs2)cc(-c2ccsc2)c1-c1ccsc1 | > 100 | > 100 | > 100 | > 100 | > 100 | 59.6 | > 100 |  |  |  |  |  |  | > 100 |  | 
